Values quoted from earlier work as cited in US5989583A, “Solid lipid compositions of lipophilic compounds for enhanced oral bioavailability” (Pharmos Ltd., priority 1996, dated 1999).

Tests used:
[1] = system: patients with severe heart failure; settings: 40 patients with severe heart failure, long term treatment
[2] = for Water solubility (in words): water / aqueous solutions
[3] = system: periodontal disease; settings: supplements containing CoQ10
[4] = system: cultured cerebellar neurons; settings: age-related and excitotoxin-induced degeneration
[5] = 20 mg THC in a sesame oil formulation

COC1=C(OC)C(=O)C(C/C=C(\C)CC/C=C(\C)CC/C=C(\C)CC/C=C(\C)CC/C=C(\C)CC/C=C(\C)CC/C=C(\C)CC/C=C(\C)CC/C=C(\C)CCC=C(C)C)=C(C)C1=O [CoQ10, 2,3-dimethoxy-5-methyl-6-decaprenyl-1,4-benzoquinone]
patients showing improvement in their condition [1]: 69% | Water solubility (in words) [2]: practically insoluble in water | oral bioavailability / systemic availability: very low | Effect on periodontal disease [3]: the progress of the disease was not only stopped, but accelerated tissue healing was initiated as well | Protection of neurons against degeneration [4]: protect cultured cerebellar neurons against age-related and excitotoxin-induced degeneration

CCCCCCC(C)(C)c1cc(O)c2c(c1)OC(C)(C)[C@H]1CC=C(CO)C[C@H]21 [Dexanabinol, (+)-(3S, 4S) -7-hydroxy-Δ^6-tetra hydrocannabinol-1,1-dimetylheptyl]
Water solubility ([2]; water): less than 50 μg/ml | oral bioavailability / systemic availability: poor oral bioavailability

CCCCCc1cc(O)c2c(c1)OC(C)(C)[C@@H]1CCC(C)=C[C@@H]21 [THC, tetrahydrocannabinol]
maximal plasma levels after oral dosing [5]: around 10 ng/ml

C=C(C)[C@@H]1CCC(C)=C[C@H]1c1c(O)cc(CCCCC)cc1O [cannabidiol]
Water solubility (in words) [2]: a few micrograms/ml or less

CCCCCc1cc(O)c2c(c1)OC(C)(C)c1ccc(C)cc1-2 [cannabinol]
Water solubility (in words) [2]: a few micrograms/ml or less

CCCCCc1cc(O)c2c(c1)OC(C)(C)[C@@H]1CCC(C)=C[C@@H]21 [Δ^1 -THC, Δ^1 -tetrahydrocannabinol]
Water solubility (in words) [2]: a few micrograms/ml or less

CCCCCc1cc(O)c2c(c1)OC(C)(C)[C@@H]1CC=C(C)C[C@@H]21 [Δ^6 -THC, Δ^6 -tetrahydrocannabinol]
Water solubility (in words) [2]: a few micrograms/ml or less
